Results on 8 molecules are retold here after publication PMC12692346, “Imidazolinium-Based NHC–Metal Complexes Overcome Both Cancer Multidrug Resistance and Cisplatin Resistance In Vitro” (International Journal of Molecular Sciences, 2025).

Assay [1] relates to Mes-Sa mCherry uterine sarcoma cell line. The experiment in a line: Triple coculture fluorescence cytotoxicity test, parental line. The note with it: 144 h incubation, fluorescence readout. In kind it is cell-based, human. The procedure:
(§1) All synthesized complexes and representatives of the respective ligands (Lb, Lc, SIPr, IPr) were tested in a triple coculture of uterine sarcoma cell lines, consisting of the parental Mes-Sa cell line, and its MDR derivatives Mes-Sa/B1 and Mes-Sa/Dx5, transfected or selected in doxorubicin to overexpress P-glycoprotein, respectively (Figure 2a–c, Table S2). Each cell line expresses a distinct fluorescent protein (mCherry, mOrange, and eGFP, respectively), and the total fluorescence of a well is proportional to the cell number, allowing the assessment of compound cytotoxicity.
(§2) In a triple coculture system, cell lines expressing different fluorescent proteins were seeded in the same well. Cell lines (Mes-Sa mCherry, Mes-Sa/B1 mOrange, Mes-Sa/Dx5 eGFP [25]) were admixed and seeded on 384-well plates at a density of 3 × 800 cells/well (1:1:1 ratio), resulting in an overall total of 2400 cells. The next day, serially diluted compounds were added to the wells. Liquid handling was managed by a Hamilton StarLet pipetting robot. After 144 h of incubation, the fluorescence of mCherry (ex/em: 585/610 nm), mOrange (ex/em: 545/567 nm) and eGFP (ex/em: 485/510 nm) was recorded with an EnSpire plate reader (PerkinElmer, Waltham, MA, USA).
(§3) pIC50 values derived from both co- and monoculture systems were determined by a custom program written in C# [25], then average and standard deviations were calculated and transformed to IC50 values. Every compound was tested in at least 3 independent experiments in triplicates.

The test system of assay [2] is Mes-Sa/B1 mOrange. The experiment in a line: Triple coculture fluorescence cytotoxicity test, ABCB1-transfected MDR line. Type of assay: cell-based, human. The note with it: for RR_B1 resistance ratio (IC50_MDR line / IC50_parental line) of Mes-Sa/B1: Mes-Sa/B1 vs Mes-Sa; for pIC50: triple coculture, 144 h incubation, fluorescence readout. The procedure:
as §1, §2, §3

In assay [3] the test system is Mes-Sa/Dx5 eGFP. The experiment in a line: Triple coculture fluorescence cytotoxicity test, doxorubicin-selected MDR line. In kind it is cell-based, human. The note with it: for RR_Dx5 resistance ratio (IC50_MDR line / IC50_parental line) of Mes-Sa/Dx5: Mes-Sa/Dx5 vs Mes-Sa; for pIC50: triple coculture, 144 h incubation, fluorescence readout. On the procedure: as §1, §2, §3

The subject of assay [4] is CST-2/3 cisplatin-resistant cells. The experiment in a line: Monoculture PrestoBlue cytotoxicity test, cisplatin-resistant CST-2/3. Type of assay: cell-based, mouse. The procedure:
(§4) CST, a drug-naïve murine breast cancer cell line, and cisplatin-resistant cells CST-2/3 were seeded in monoculture into 384-well plates (Corning Inc., Corning, NY, USA) at a density of 2500 cells per well using automated liquid-handling. The cells were preincubated for 24 h to ensure adherence, followed by the addition of serially diluted compounds to a final well volume of 60 µL. Following 120 h of continuous drug exposure, cell viability was quantified using the PrestoBlue viability assay (Thermo Fisher Scientific, Waltham, MA, USA) after 1 h incubation at 555 nm excitation and 585 nm emission wavelengths.
as §3

Assay [5] has as its system CST murine breast cancer cell line. The experiment in a line: Monoculture PrestoBlue cytotoxicity test, CST. Type of assay: cell-based, mouse. The note with it: 120 h exposure. The procedure:
as §4, §3

pIC50: −log10 of the molar value.

`CC(C)c1cccc(C(C)C)c1-n1ccn(-c2c(C(C)C)cccc2C(C)C)[c]1=[Cu][Cl]` [Compound 5b]: the pIC50 in assay [1] was 6.00; in assay [2], 5.70; in assay [3], 5.74. Further, the “RR_B1 resistance ratio (IC50_MDR line / IC50_parental line) of Mes-Sa/B1” value in assay [2] is 2.0. Moreover, the “RR_Dx5 resistance ratio (IC50_MDR line / IC50_parental line) of Mes-Sa/Dx5” value in assay [3] turned out to be 1.8.

As to `CC(C)c1cccc(C(C)C)c1-n1ccn(-c2c(C(C)C)cccc2C(C)C)[c]1=[Ag][Cl]` [Compound 6b], the pIC50 in assay [1] was 5.74. In addition, in assay [2], the “RR_B1 resistance ratio (IC50_MDR line / IC50_parental line) of Mes-Sa/B1” value came to 2.4 and the pIC50 is 5.36. Further, in assay [3], the “RR_Dx5 resistance ratio (IC50_MDR line / IC50_parental line) of Mes-Sa/Dx5” value came to 2.1 and the pIC50 is 5.41.

On to `CC(C)c1cccc(C(C)C)c1-n1ccn(-c2c(C(C)C)cccc2C(C)C)[c]1=[Au][Cl]` [Compound 7b], for which the pIC50 in assay [1] was 4.73. For the same molecule, in assay [2], the “RR_B1 resistance ratio (IC50_MDR line / IC50_parental line) of Mes-Sa/B1” value is listed as 1.9 and the pIC50 was 4.44. Further, in assay [3], the “RR_Dx5 resistance ratio (IC50_MDR line / IC50_parental line) of Mes-Sa/Dx5” value was 3.2 and the negative logarithm of the IC50 (pIC50) was 4.22.

`CC(C)c1cccc(C(C)C)c1-n1ccn(-c2c(C(C)C)cccc2C(C)C)[c]1=[Cu+]=[c]1n(-c2c(C(C)C)cccc2C(C)C)ccn1-c1c(C(C)C)cccc1C(C)C.F[B-](F)(F)F` [Compound 9b]: the pIC50 in assay [1] was 7.24; in assay [2], 5.66; in assay [3], 5.67. In addition, in assay [2], the “RR_B1 resistance ratio (IC50_MDR line / IC50_parental line) of Mes-Sa/B1” value turned out to be 38.0. The “RR_Dx5 resistance ratio (IC50_MDR line / IC50_parental line) of Mes-Sa/Dx5” value in assay [3] was determined as 37.3.

Regarding `COc1cc([C@@H]2c3cc4c(cc3[C@@H](O[C@@H]3O[C@@H]5CO[C@@H](C)O[C@H]5[C@H](O)[C@H]3O)[C@H]3COC(=O)[C@H]23)OCO4)cc(OC)c1O` [Etoposide, reference compound], the pIC50 is 6.92 in assay [1] (Homo sapiens, MES-SA); 5.95 in assay [2] (Homo sapiens, MES-SA); 5.72 in assay [3] (Homo sapiens, MES-SA/Dx5). In addition, in assay [2], the “RR_B1 resistance ratio (IC50_MDR line / IC50_parental line) of Mes-Sa/B1” value came to 9.0. The “RR_Dx5 resistance ratio (IC50_MDR line / IC50_parental line) of Mes-Sa/Dx5” value in assay [3] was 15.4.

`CC(C)c1cccc(C(C)C)c1-n1cc[n+](-c2c(C(C)C)cccc2C(C)C)c1` [IPr, reference compound]: the pIC50 was 5.66 in assay [1] (Homo sapiens, MES-SA); 4.47 in assay [2] (Homo sapiens, MES-SA); 4.29 in assay [3] (Homo sapiens, MES-SA/Dx5). For the same molecule, in assay [2], the “RR_B1 resistance ratio (IC50_MDR line / IC50_parental line) of Mes-Sa/B1” value was found to be 15.5. In addition, the “RR_Dx5 resistance ratio (IC50_MDR line / IC50_parental line) of Mes-Sa/Dx5” value in assay [3] is listed as 23.4.

As for `CC(C)c1cccc(C(C)C)c1N1C=[N+]([C@H](C)c2ccccc2)C[C@@H]1C(C)(C)C` [Lc], the negative-log IC50 (pIC50) is 5.62 in assay [1] (Homo sapiens, MES-SA); 4.29 in assay [2] (Homo sapiens, MES-SA); 4.14 in assay [3] (Homo sapiens, MES-SA/Dx5). Moreover, the “RR_B1 resistance ratio (IC50_MDR line / IC50_parental line) of Mes-Sa/B1” value in assay [2] came to 21.4. In addition, the “RR_Dx5 resistance ratio (IC50_MDR line / IC50_parental line) of Mes-Sa/Dx5” value in assay [3] was found to be 30.4.

With `O=C1[O][Pt]2([NH][C@@H]3CCCC[C@H]3[NH]2)[O]C1=O` [Oxaliplatin, reference compound], the “RR_CST resistance ratio (IC50_CST-2/3 / IC50_CST)” value in assay [4] (CST-2/3 vs CST) was 9.3. The pIC50 in assay [4] (monoculture, 120 h exposure, PrestoBlue) was 5.42; in assay [5], 6.39.
